# Laboratory results as given in ChEMBL document CHEMBL2406981, “Novel pyrazoline amidoxime and their 1,2,4-oxadiazole analogues: synthesis and pharmacological screening” (Bioorg Med Chem Lett, 2013).
# Key:
# Type in all cases: functional
# Aspergillus flavus [1] = assay: Antimicrobial activity against Aspergillus flavus MTCC 873 at 50 ug/ml after 24 hrs by agar disc diffusion method; conditions: MTCC 873, 24 h, read-out: DIZ
# [2] = tested on: Radical scavenging activity; assay: Antioxidant activity assessed as DPPH free radical scavenging activity at 50 ug/ml after 20 mins
# [3] = Antioxidant activity against ferric chloride-induced lipid peroxidation using egg lecithin at 50 ug/ml after 1 hr
# [4] = Antiinflammatory activity against heat-induced albumin denaturation at […] preincubated for 15 mins before heat induction by UV-vis spectrophotometer analysis
# Aspergillus flavus [5] = assay: Antimicrobial activity against Aspergillus flavus MTCC 873 at 100 ug/ml after 24 hrs by agar disc diffusion method; conditions: MTCC 873, 24 h, read-out: DIZ
# Escherichia coli [6] = assay: Antimicrobial activity against Escherichia coli MTCC 724 at 50 ug/ml after 24 hrs by agar disc diffusion method; conditions: MTCC 724, 24 h, read-out: DIZ
# [7] = Antioxidant activity assessed as reducing power of ferric ion at 100 ug/ml after 20 mins; design: scale not given: the % may be the effect or the level left
# [8] = tested on: Radical scavenging activity; assay: Antioxidant activity assessed as DPPH free radical scavenging activity at 100 ug/ml after 20 mins
# Bacillus cereus [9] = assay: Antimicrobial activity against Bacillus cereus MTCC 8372 at 100 ug/ml after 24 hrs by agar disc diffusion method; conditions: MTCC 8372, 24 h, read-out: DIZ
# Staphylococcus aureus [10] = assay: Antimicrobial activity against Staphylococcus aureus MTCC 96 at 50 ug/ml after 24 hrs by agar disc diffusion method; conditions: MTCC 96, 24 h, read-out: DIZ
# Shigella flexneri [11] = assay: Antimicrobial activity against Shigella flexneri MTCC 1457 at 100 ug/ml after 24 hrs by agar disc diffusion method; conditions: MTCC 1457, 24 h, read-out: DIZ
# Aspergillus niger [12] = assay: Antimicrobial activity against Aspergillus niger MTCC 281
# [13] = Antioxidant activity against ferric chloride-induced lipid peroxidation using egg lecithin at 100 ug/ml after 1 hr
# Shigella flexneri [14] = assay: Antimicrobial activity against Shigella flexneri MTCC 1457 at 50 ug/ml after 24 hrs by agar disc diffusion method; conditions: MTCC 1457, 24 h, read-out: DIZ
# Escherichia coli [15] = assay: Antimicrobial activity against Escherichia coli MTCC 724 at 100 ug/ml after 24 hrs by agar disc diffusion method; conditions: MTCC 724, 24 h, read-out: DIZ
# [16] = tested on: Radical scavenging activity; assay: Antioxidant activity assessed as DPPH free radical scavenging activity at 10 ug/ml after 20 mins
# Bacillus cereus [17] = assay: Antimicrobial activity against Bacillus cereus MTCC 8372 at 50 ug/ml after 24 hrs by agar disc diffusion method; conditions: MTCC 8372, 24 h, read-out: DIZ
# Klebsiella pneumoniae [18] = assay: Antimicrobial activity against Klebsiella pneumoniae MTCC 3384 at 100 ug/ml after 24 hrs by agar disc diffusion method; conditions: MTCC 3384, 24 h, read-out: DIZ
# Aspergillus flavus [19] = assay: Antimicrobial activity against Aspergillus flavus MTCC 873
# Staphylococcus aureus [20] = assay: Antimicrobial activity against Staphylococcus aureus MTCC 96
# Klebsiella pneumoniae [21] = assay: Antimicrobial activity against Klebsiella pneumoniae MTCC 3384 at 50 ug/ml after 24 hrs by agar disc diffusion method; conditions: MTCC 3384, 24 h, read-out: DIZ
# Staphylococcus aureus [22] = assay: Antimicrobial activity against Staphylococcus aureus MTCC 96 at 100 ug/ml after 24 hrs by agar disc diffusion method; conditions: MTCC 96, 24 h, read-out: DIZ
# Klebsiella pneumoniae [23] = assay: Antimicrobial activity against Klebsiella pneumoniae MTCC 3384
# Aspergillus niger [24] = assay: Antimicrobial activity against Aspergillus niger MTCC 281 at 100 ug/ml after 24 hrs by agar disc diffusion method; conditions: MTCC 281, 24 h, read-out: DIZ
# Shigella flexneri [25] = assay: Antimicrobial activity against Shigella flexneri MTCC 1457
# [26] = Antioxidant activity assessed as reducing power of ferric ion at 50 ug/ml after 20 mins; design: scale not given: the % may be the effect or the level left
# Escherichia coli [27] = assay: Antimicrobial activity against Escherichia coli MTCC 724
# Bacillus cereus [28] = assay: Antimicrobial activity against Bacillus cereus MTCC 8372
# [29] = Antioxidant activity against ferric chloride-induced lipid peroxidation using egg lecithin at 10 ug/ml after 1 hr
# [30] = Antioxidant activity assessed as reducing power of ferric ion at 10 ug/ml after 20 mins; design: scale not given: the % may be the effect or the level left
# Aspergillus niger [31] = assay: Antimicrobial activity against Aspergillus niger MTCC 281 at 50 ug/ml after 24 hrs by agar disc diffusion method; conditions: MTCC 281, 24 h, read-out: DIZ
MIC (Aspergillus niger [12]) [µg/mL],MIC (Aspergillus flavus [19]) [µg/mL],MIC (Staphylococcus aureus [20]) [µg/mL],Compound,zone of inhibition at 50 µg/mL (Aspergillus flavus [1]) [mm],Activity [2] [%],inhibition [3] [%],inhibition [4] [%],zone of inhibition at 100 µg/mL (Aspergillus flavus [5]) [mm],zone of inhibition at 50 µg/mL (Escherichia coli [6]) [mm],Activity [7] [%],Activity [8] [%],zone of inhibition at 100 µg/mL (Bacillus cereus [9]) [mm],zone of inhibition at 50 µg/mL (Staphylococcus aureus [10]) [mm],zone of inhibition at 100 µg/mL (Shigella flexneri [11]) [mm],inhibition [13] [%],zone of inhibition at 50 µg/mL (Shigella flexneri [14]) [mm],zone of inhibition at 100 µg/mL (Escherichia coli [15]) [mm],Activity [16] [%],zone of inhibition at 50 µg/mL (Bacillus cereus [17]) [mm],zone of inhibition at 100 µg/mL (Klebsiella pneumoniae [18]) [mm],other results
10,15,35,COc1ccc(C2=NN(c3ccccc3)C(c3noc(-c4ccccc4OC)n3)C2)cc1 (centres undefined),10,41,33,27.1,12,6,65,53,8,4,10,57,6,8,20,4,8,zone of inhibition at 50 µg/mL (Klebsiella pneumoniae [21]): 7 mm; zone of inhibition at 100 µg/mL (Staphylococcus aureus [22]): 8 mm; MIC (Klebsiella pneumoniae [23]): 25 µg/mL; zone of inhibition at 100 µg/mL (Aspergillus niger [24]): 22 mm; MIC (Shigella flexneri [25]): 25 µg/mL; Activity [26]: 24%; MIC (Escherichia coli [27]): 25 µg/mL; MIC (Bacillus cereus [28]): 35 µg/mL; inhibition [29]: 21%; Activity [30]: 11%; zone of inhibition at 50 µg/mL (Aspergillus niger [31]): 12 mm
15,15,50,c1ccc(C2=NN(c3ccccc3)C(c3noc(-c4ccccc4)n3)C2)cc1 (centres undefined),9,28,40,23.3,12,3,58,39,8,2,8,57,4,8,18,4,6,zone of inhibition at 50 µg/mL (Klebsiella pneumoniae [21]): 4 mm; zone of inhibition at 100 µg/mL (Staphylococcus aureus [22]): 8 mm; MIC (Klebsiella pneumoniae [23]): 30 µg/mL; zone of inhibition at 100 µg/mL (Aspergillus niger [24]): 14 mm; MIC (Shigella flexneri [25]): 20 µg/mL; Activity [26]: 16%; MIC (Escherichia coli [27]): 50 µg/mL; MIC (Bacillus cereus [28]): 30 µg/mL; inhibition [29]: 21%; Activity [30]: 6%; zone of inhibition at 50 µg/mL (Aspergillus niger [31]): 10 mm
5,10,15,COc1cc(-c2nc(C3CC(c4ccc(O)cc4)=NN3c3ccccc3)no2)cc(OC)c1OC (centres undefined),14,63,62,59.3,26,10,76,91,18,10,22,87,14,16,34,12,18,zone of inhibition at 50 µg/mL (Klebsiella pneumoniae [21]): 12 mm; zone of inhibition at 100 µg/mL (Staphylococcus aureus [22]): 18 mm; MIC (Klebsiella pneumoniae [23]): 10 µg/mL; zone of inhibition at 100 µg/mL (Aspergillus niger [24]): 30 mm; MIC (Shigella flexneri [25]): 10 µg/mL; Activity [26]: 26%; MIC (Escherichia coli [27]): 15 µg/mL; MIC (Bacillus cereus [28]): 10 µg/mL; inhibition [29]: 42%; Activity [30]: 16%; zone of inhibition at 50 µg/mL (Aspergillus niger [31]): 18 mm
10,10,20,COc1ccc(-c2nc(C3CC(c4ccccc4)=NN3c3ccccc3)no2)cc1OC (centres undefined),10,56,52,27.1,14,8,68,66,14,8,10,71,7,12,26,8,14,zone of inhibition at 50 µg/mL (Klebsiella pneumoniae [21]): 8 mm; zone of inhibition at 100 µg/mL (Staphylococcus aureus [22]): 12 mm; MIC (Klebsiella pneumoniae [23]): 20 µg/mL; zone of inhibition at 100 µg/mL (Aspergillus niger [24]): 18 mm; MIC (Shigella flexneri [25]): 25 µg/mL; Activity [26]: 29%; MIC (Escherichia coli [27]): 20 µg/mL; MIC (Bacillus cereus [28]): 20 µg/mL; inhibition [29]: 14%; Activity [30]: 12%; zone of inhibition at 50 µg/mL (Aspergillus niger [31]): 12 mm
